Experimental findings from paper PMC11078746 (Nature, 2024) are described below.

Read-outs that look alike come from different tables or passages of the source. A value given as a limit tells only on which side of the number the result lay.

For test [1], the target named is T1, BLM (Homo sapiens, UniProt P54132).
T1 construct: human BLM-D1D2RH (UniProt P54132: Lys640–Gly1298); His tag (N, cleaved yes); made in house; host or cells: E. coli BL21(DE3)
Description: RecQ selectivity ATPase assay. It is filed as biochemical. Here is the method:
(§1) DNA sequence allowing expression of human BLM-D1D2RH (UniProt P54132: Lys640–Gly1298) fused at the amino-terminal end to His tag followed by TEV-cleavage site, was inserted into a pET-derived vector. Protein expression was performed in BL21(DE3) cells after IPTG induction. Cells were collected and resuspended in lysis buffer (50 mM NaH2PO4, 300 mM NaCl, 1 mM TCEP, 20 mM imidazole, pH 8.0) supplemented with 2 mM MgCl2, benzonase and 0.5 mM AEBSF. Cells were lysed with an Emulsiflex C3 homogenizer. After ultracentrifugation, the lysate was loaded onto a HisTrap HP column. Bound protein was eluted with an imidazole gradient in lysis buffer. The amino-terminal tag was cleaved with TEV protease. Cleaved protein was loaded on Resource S ion-exchange column and eluted with a NaCl gradient in IEX buffer (20 mM Tris, 1 mM TCEP, 10% glycerol, 20 mM NaCl, pH 7.4). As a final step, BLM-D1D2RH protein was concentrated and loaded onto the Superdex 75 gel-filtration column pre-equilibrated with SEC buffer (50 mM Tris, 150 mM NaCl, 10% glycerol, pH 7.4). Eluted target protein was concentrated and frozen on dry ice. An analogous procedure was used for the expression and purification of human RecQ1-D1D2 (UniProt: P46063, Asp62–Ser482) and Human RecQ5-D1D2 (UniProt: O94762, Asp11–Trp453) proteins.
(§2) We used an ADP-Glo assay kit (Promega) to monitor ATP hydrolysis. A 45-oligonucleotide with the following sequence: […], referred to as FLAP26, as described previously[45] was purchased from IDT (Integrated DNA Technologies) and used as a DNA substrate. […] The reaction was started by addition of 2.5 μl of ssDNA substrate at 0.4 nM and incubated for 30 min at room temperature. The reaction was stopped with the addition of 5 μl of the first ADP-Glo reagent and incubated for 1 h to remove the excess amount of ATP. Then, 10 μl of ATP detection reagent was added and incubated for an additional hour before reading. The luminescence output was recorded using the Pherastar reader, with a 5 min delay before reading. Each concentration of compounds was tested in duplicates in the assay plate. The compound potency (IC50 value) was determined using custom software (Novartis Helios software application) with a four-parameter sigmoid Hill-curve model. After normalization of activity values for the wells to percentage inhibition (percentage inhibition = [(high control activity − sample activity)/(high control activity − low control activity)] × 100), IC50 fitting was performed from the duplicate determinations present on each plate.
(§3) The same ATPase assay protocol was used with the three other RecQ protein constructs to assess the selectivity over WRN. Time-course experiments were performed to determine the best enzymatic assay conditions for each RecQ protein. The experiments were run as described above with 10 nM RecQ1 protein construct with 10 nM ssDNA substrate, 2 nM BLM protein construct with 0.2 nM ssDNA substrate and 0.5 nM RecQ5 protein construct with 2 nM ssDNA substrate, respectively.

For test [2], the target named is T2, RecQ1 (Homo sapiens, UniProt P46063).
T2 construct: human RecQ1-D1D2 (UniProt: P46063, Asp62–Ser482); His tag (N); made in house; host or cells: E. coli BL21(DE3), by the 'analogous procedure'
T2 sequence (P46063 62-482): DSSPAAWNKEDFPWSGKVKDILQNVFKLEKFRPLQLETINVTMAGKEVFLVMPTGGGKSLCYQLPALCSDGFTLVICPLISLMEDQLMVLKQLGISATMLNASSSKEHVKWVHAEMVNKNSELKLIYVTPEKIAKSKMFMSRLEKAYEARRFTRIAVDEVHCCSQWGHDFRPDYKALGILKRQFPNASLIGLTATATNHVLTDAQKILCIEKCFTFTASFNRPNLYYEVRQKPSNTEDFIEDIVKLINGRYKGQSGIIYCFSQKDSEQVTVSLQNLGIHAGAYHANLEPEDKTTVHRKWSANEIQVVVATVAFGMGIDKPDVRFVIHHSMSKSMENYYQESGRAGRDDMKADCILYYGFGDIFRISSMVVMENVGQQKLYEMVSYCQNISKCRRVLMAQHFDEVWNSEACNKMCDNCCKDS
The test can be described thus: RecQ selectivity ATPase assay. The format is biochemical. Here is the method: as §1, §2, §3

The target in test [3] is T3, RecQ5 (Homo sapiens, UniProt O94762).
T3 construct: Human RecQ5-D1D2 (UniProt: O94762, Asp11–Trp453); His tag (N); made in house; host or cells: E. coli BL21(DE3), by the 'analogous procedure'
T3 sequence (O94762 11-453): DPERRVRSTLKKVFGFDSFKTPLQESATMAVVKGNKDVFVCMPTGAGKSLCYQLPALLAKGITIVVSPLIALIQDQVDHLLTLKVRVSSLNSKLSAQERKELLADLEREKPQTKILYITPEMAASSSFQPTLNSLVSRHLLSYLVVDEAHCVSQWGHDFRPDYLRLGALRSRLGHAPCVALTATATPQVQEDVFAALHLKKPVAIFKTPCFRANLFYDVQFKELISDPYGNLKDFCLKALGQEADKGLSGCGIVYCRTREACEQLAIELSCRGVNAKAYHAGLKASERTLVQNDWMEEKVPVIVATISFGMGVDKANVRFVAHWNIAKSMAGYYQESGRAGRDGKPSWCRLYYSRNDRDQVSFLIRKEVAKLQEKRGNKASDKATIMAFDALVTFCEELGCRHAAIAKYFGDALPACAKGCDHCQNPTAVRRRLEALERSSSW
The test can be described thus: RecQ selectivity ATPase assay. The format is biochemical. The procedure:
as §1, §2, §3

The test system of test [4] is HEC6. Description: CFA 10-14 day clonogenic assay. The format is cell-based. As to conditions: Homo sapiens, HEC-6.
Test [5] concerns CAL33. Description: CFA 10-14 day clonogenic assay. The format is cell-based. As to conditions: Homo sapiens, CAL-33.
The test system of test [6] is HCT116. The test can be described thus: 4 day proliferation assay (CellTiter-Glo).
For test [7], the system named is RKO. The test can be described thus: 4 day proliferation assay (CellTiter-Glo). As to conditions: Homo sapiens, 96 h, read-out: 4 day assay GI50.
Test [8] has as its system HEC151. The test can be described thus: 4 day proliferation assay (CellTiter-Glo). Particulars: Homo sapiens, 96 h, read-out: 4 day assay GI50.

T1 sequence (P54132 640-1298): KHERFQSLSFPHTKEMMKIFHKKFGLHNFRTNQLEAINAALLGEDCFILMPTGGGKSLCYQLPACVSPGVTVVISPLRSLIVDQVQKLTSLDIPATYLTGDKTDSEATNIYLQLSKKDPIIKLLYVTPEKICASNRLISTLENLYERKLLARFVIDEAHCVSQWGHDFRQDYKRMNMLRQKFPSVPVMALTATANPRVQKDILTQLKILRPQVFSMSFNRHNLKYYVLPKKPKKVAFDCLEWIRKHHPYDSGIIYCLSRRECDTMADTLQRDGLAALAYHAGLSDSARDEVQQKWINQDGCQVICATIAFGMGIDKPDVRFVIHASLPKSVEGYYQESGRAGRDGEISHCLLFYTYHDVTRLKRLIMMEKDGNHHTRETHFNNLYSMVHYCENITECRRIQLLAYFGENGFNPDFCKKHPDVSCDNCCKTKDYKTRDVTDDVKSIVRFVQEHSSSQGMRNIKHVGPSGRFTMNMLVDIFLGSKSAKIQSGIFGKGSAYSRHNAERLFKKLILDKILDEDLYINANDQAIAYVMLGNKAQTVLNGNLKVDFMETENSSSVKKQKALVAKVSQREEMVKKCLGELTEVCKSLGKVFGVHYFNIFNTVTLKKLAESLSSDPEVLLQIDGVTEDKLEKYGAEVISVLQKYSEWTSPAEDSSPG

For `CCc1c(N2CCN(C(=O)c3ncnc(C)c3O)CC2)c(=O)n2nc(C3=CCOCC3)nc2n1CC(=O)Nc1ccc(C(F)(F)F)cc1Cl` [HRO761], the 50% inhibitory concentration (IC50) in test [1], in test [2] and in test [3] was above 100 µM each time. For the same compound, the GI50 in test [4] is 0.016 µM; in test [5], at least 10 µM; in test [6] (Homo sapiens, HCT-116, 96 h, read-out: 4 day assay GI50, HCT116) it was 0.116 µM; in test [6] (read-out: 4 day assay GI50, HCT116), 0.143 µM; in test [7] it was 2.91 µM; in test [8], at least 10 µM.
